Measured values: paper PMC7162861, “Synthesis, cytotoxicity, pharmacokinetic profile, binding with DNA and BSA of new imidazo[1,2-a]pyrazine-benzo[d]imidazol-5-yl hybrids” (Scientific Reports, 2020)

Tests used:
[1] = system: UACC-62; test: NCI cytotoxicity screen, Melanoma panel; type: cell-based, human; details: five dose 0.01–100 µM
Protocol: (§1) Cytotoxicity was performed at National Cancer Institute (NCI), Bethesda, USA as per their protocols.

[2] = system: LOX IMVI; test: NCI cytotoxicity screen, Melanoma panel; type: cell-based, human
Protocol: as §1

[3] = system: M14; test: NCI cytotoxicity screen, Melanoma panel; type: cell-based, human
Protocol: as §1

[4] = system: HCT-116; test: NCI cytotoxicity screen, Colon Cancer panel; type: cell-based; details: Homo sapiens, five dose 0.01–100 µM
Protocol: as §1

[5] = system: HT29; test: NCI cytotoxicity screen, Colon Cancer panel; type: cell-based
Protocol: as §1

[6] = system: HCT-15; test: NCI cytotoxicity screen, Colon Cancer panel; type: cell-based; details: Homo sapiens
Protocol: as §1

[7] = system: COLO 205; test: NCI cytotoxicity screen, Colon Cancer panel; type: cell-based
Protocol: as §1

[8] = system: OVCAR-3; test: NCI cytotoxicity screen, Ovarian Cancer panel; type: cell-based, human
Protocol: as §1

[9] = system: PC-3; test: NCI cytotoxicity screen, Prostate Cancer panel; type: cell-based, human; details: five dose 0.01–100 µM
Protocol: as §1

[10] = system: DU-145; test: NCI cytotoxicity screen, Prostate Cancer panel; type: cell-based, human
Protocol: as §1

[11] = system: MDA-MB-468; test: NCI cytotoxicity screen, Breast Cancer panel; type: cell-based; details: Homo sapiens, five dose 0.01–100 µM
Protocol: as §1

[12] = system: BT-549; test: NCI cytotoxicity screen, Breast Cancer panel; type: cell-based
Protocol: as §1

[13] = system: HS 578 T; test: NCI cytotoxicity screen, Breast Cancer panel; type: cell-based
Protocol: as §1

[14] = system: MCF7; test: NCI cytotoxicity screen, Breast Cancer panel; type: cell-based
Protocol: as §1

[15] = system: MDA-MB-231/ATCC; test: NCI cytotoxicity screen, Breast Cancer panel; type: cell-based
Protocol: as §1

[16] = system: T-47D; test: NCI cytotoxicity screen, Breast Cancer panel; type: cell-based
Protocol: as §1

[17] = system: NCI-522; test: NCI cytotoxicity screen, Non-Small Cell Lung Cancer panel; type: cell-based, human
Protocol: as §1

[18] = system: NCI-H322M; test: as above; type: cell-based, human
Protocol: as §1

[19] = system: NCI-H226; test: as above; type: cell-based, human
Protocol: as §1

[20] = system: NCI-H23; test: as above; type: cell-based, human; details: five dose 0.01–100 µM
Protocol: as §1

[21] = system: NCI/ADR-RES; test: NCI cytotoxicity screen, Ovarian Cancer panel; type: cell-based
Protocol: as §1

[22] = system: OVCAR-8; test: NCI cytotoxicity screen, Ovarian Cancer panel; type: cell-based
Protocol: as §1

[23] = system: OVCAR-5; test: NCI cytotoxicity screen, Ovarian Cancer panel; type: cell-based; details: Homo sapiens
Protocol: as §1

[24] = system: OVCAR-4; test: NCI cytotoxicity screen, Ovarian Cancer panel; type: cell-based; details: Homo sapiens, OVCAR-4
Protocol: as §1

[25] = Homo sapiens, five dose 0.01–100 µM, read-out: LC50 (the source's name)

## c1cn2cc(-c3ccc4ncn(C5CCCCC5)c4c3)nc(-c3ccc4c(c3)ncn4C3CCCCC3)c2n1 [Compound 31, 8-(1-cyclohexyl-1H-benzo[d]imidazol-5-yl)-6-(1-cyclohexyl-1H-benzo[d]imidazol-6-yl)imidazo[1,2-a]pyrazine]
[1]; Homo sapiens
  GI50: 1.7 µM
[1]
  TGI: 3.36 µM
[2]; Homo sapiens
  GI50: 1.68 µM
[2]; five dose 0.01–100 µM
  TGI: 3.22 µM
[3]; Homo sapiens
  GI50: 1.77 µM
[3]; five dose 0.01–100 µM
  TGI: 3.65 µM
[4]
  GI50: 1.7 µM
[5]; HT29, five dose 0.01–100 µM
  TGI: 5.20 µM
[5]; Homo sapiens, HT-29
  GI50: 2.44 µM
[5]; Homo sapiens, HT-29, HT29, five dose 0.01–100 µM, read-out: LC50 (the source's name)
  CC50: > 1 µM
[6]
  GI50: 2.07 µM
[7]; Homo sapiens
  GI50: 1.93 µM
[7]; Homo sapiens, five dose 0.01–100 µM
  LC50: 7.44 µM
[7]; five dose 0.01–100 µM
  TGI: 3.79 µM
[8]; Homo sapiens, OVCAR-3
  GI50: 1.83 µM
[8]; Homo sapiens, OVCAR-3, read-out: LC50
  CC50: 6.2 µM
[8]; OVCAR-3, five dose 0.01–100 µM
  TGI: 3.36 µM
[9]; Homo sapiens
  GI50: 1.7 µM
[9]
  TGI: 3.93 µM
[10]; Homo sapiens
  GI50: 1.77 µM
[10]; five dose 0.01–100 µM
  TGI: 3.28 µM
[11]
  GI50: 2.32 µM
[11]; read-out: LC50 (the source's name)
  CC50: > 1 µM
[12]; Homo sapiens
  GI50: 1.94 µM
[12]; [25]
  CC50: 6.82 µM
[12]; five dose 0.01–100 µM
  TGI: 3.64 µM
[13]; HS 578 T, five dose 0.01–100 µM
  TGI: 6.74 µM
[13]; Homo sapiens, Hs-578T
  GI50: 2.39 µM
[13]; Homo sapiens, Hs-578T, read-out: Percent growth inhibition
  inhibition at 10 µM: 96.6%
[13]; Homo sapiens, HS 578 T, five dose 0.01–100 µM, read-out: LC50 (the source's name)
  CC50: > 1 µM
[14]; Homo sapiens
  GI50: 1.8 µM
[14]; [25]
  CC50: > 1 µM
[14]; five dose 0.01–100 µM
  TGI: 4.58 µM
[15]; Homo sapiens, MDA-MB-231
  GI50: 1.29 µM
[15]; Homo sapiens, MDA-MB-231/ATCC, five dose 0.01–100 µM, read-out: LC50 (the source's name)
  CC50: 7.33 µM
[15]; MDA-MB-231/ATCC, five dose 0.01–100 µM
  TGI: 3.08 µM
[16]; Homo sapiens, T47D
  GI50: 1.9 µM
[16]; Homo sapiens, T47D, T-47D, five dose 0.01–100 µM, read-out: LC50 (the source's name)
  CC50: > 1 µM
[16]; T-47D, five dose 0.01–100 µM
  TGI: 4.69 µM
[17]; Homo sapiens
  GI50: 1.74 µM
[17]; NCI-522, five dose 0.01–100 µM
  TGI: 3.40 µM
[18]; Homo sapiens
  GI50: 1.91 µM
[18]; Homo sapiens, single dose 10 µM, negative = lethal, read-out: Percent growth inhibition
  inhibition at 10 µM: 98.8%
[18]; five dose 0.01–100 µM
  TGI: 4.14 µM
[19]; Homo sapiens
  GI50: 1.69 µM
[19]; five dose 0.01–100 µM
  TGI: 3.79 µM
[20]; Homo sapiens
  GI50: 2.01 µM
[20]
  TGI: 4.09 µM
[21]; Homo sapiens
  GI50: 2.34 µM
[21]; [25]
  CC50: > 1 µM
[21]; Homo sapiens, read-out: Percent growth inhibition
  inhibition at 10 µM: 98.9%
[21]; five dose 0.01–100 µM
  TGI: 7.33 µM
[22]; Homo sapiens
  GI50: 2.55 µM
[22]; [25]
  CC50: > 1 µM
[22]; five dose 0.01–100 µM
  TGI: 9.49 µM
[23]
  GI50: 2.43 µM
[23]; five dose 0.01–100 µM, read-out: LC50 (the source's name)
  CC50: > 1 µM
[24]
  GI50: 2.17 µM
